The structures appear in SMILES notation.

The record followed here is US7901712B2, “Gliclazide nanosphere and manufacturing method therefor and application thereof” (Kaoshiung Medical University, priority 2006, dated 2011).

A short description of data set [1]: Particle size measurement by photon correlation spectroscopy. The format is physicochemical. The conditions noted are these: PCS, diluted in ethylene glycol, n = 3. The protocol:
The average particle size of GL nanoparticles, GL solid complexes, the β-CD and the gliclazide pure drug were measured by the method of photon correlation spectroscopy (PCS) using Malvern Zetasizer 3000HSA (Malvern Worcestershire, UK). Prior to measurements, about 50 mg of each sample were diluted with 100 ml of ethylene glycol. The sizes of the above-mentioned four particle distributions were estimated by setting the intensity of the scattered light at λ=750 nm and the scattering angle at θ=90°. The background medium, i.e. the ethylene glycol (η=16.1 mPa·s) with the refractive index thereof being 1.431.

The nature of data set [2]: In vitro dissolution test, USP 24 paddle apparatus. It is filed as physicochemical. The conditions noted are these: 37°C; for DP (dissolved percentage): deionized water. The protocol: According to the USP 24 paddle apparatus, in vitro dissolution tests are performed with Hanson SR8 Plus (Chatsworth, USA). Three samples containing 80 mg of GL pure drug, GL solid complexes with an equivalent amount of GLs and GL nanospheres with an equivalent amount of GLs are poured separately into 900 ml deionized water at 37±0.5° C. with stirring rate at 100 rpm. Afterwards, 0.2 ml of each sample was withdrawn respectively at 1, 3, 5, 10, 15, 30, 60 and 120 min by the Waters transfer module (Milford, USA). Subsequently, the concentration of the samples was assayed using the HPLC method. The dissolution profiles are evaluated by the dissolution efficiency (DE) parameter (Khan, 1975) and the dissolved percentage (DP). The DE of GL pure drug, GL nanospheres and GL solid complex are calculated from the following equation (3).
wherein, y represents the percentage of dissolved product;
t1 and t2 represents the two different time points
y100 represents the maximum percentage of the dissolved sample

[3] abbreviates: 5 min, 900 ml deionized water, 100 rpm, 80 mg GL equivalent, n = 6.
Setting [4] is: 30 min, 900 ml deionized water, 100 rpm, n = 6.
[5] abbreviates: 60 min, 900 ml deionized water, 100 rpm, n = 6.

With `Cc1ccc(S(=O)(=O)NC(=O)NN2CC3CCCC3C2)cc1` (stereo not shown) [GL], the “Mean size ± S.D.” value in data set [1] was found to be 47.56 ± 2.11 μm. For the same compound, in data set [2] (setting [3]), the “DE5 (dissolution efficiency)” value worked out at 0.0129 and the “DP5 (dissolved percentage)” value turned out to be 1.44. Besides, in data set [2] (setting [4]), the “DE30 (dissolution efficiency)” value is 0.0229 and the “DP30 (dissolved percentage)” value came out at 3.84. For the same compound, in data set [2] (setting [5]), the “DE60 (dissolution efficiency)” value was determined as 0.0416 and the “DP60 (dissolved percentage)” value is 8.23. Moreover, the “DP (dissolved percentage)” value in data set [2] (after 60 minutes) came to 8.23%. Further, the “DP (dissolved percentage)” value in data set [2] (after five minutes) is on record as 1.44%.

`OC[C@H]1O[C@@H]2O[C@H]3[C@H](O)[C@@H](O)[C@@H](O[C@H]4[C@H](O)[C@@H](O)[C@@H](O[C@H]5[C@H](O)[C@@H](O)[C@@H](O[C@H]6[C@H](O)[C@@H](O)[C@@H](O[C@H]7[C@H](O)[C@@H](O)[C@@H](O[C@H]8[C@H](O)[C@@H](O)[C@@H](O[C@H]1[C@H](O)[C@H]2O)O[C@@H]8CO)O[C@@H]7CO)O[C@@H]6CO)O[C@@H]5CO)O[C@@H]4CO)O[C@@H]3CO` [β-CD]: in data set [1], the “Mean size ± S.D.” value is listed as 161.03±3.12 μm.
